Key:
Format in all cases: biochemical
[1] = biological target: T1, NEU1 (Homo sapiens, UniProt Q99519); assay: IC50 inhibition assay using 4MU-NANA as the substrate, NEU1; conditions: 4MU-NANA as the substrate; read-out: IC50 NEU1
T1 construct: made in house; host or cells: HEK293 (lentiviral transduction), crude lysate
Method: Two weeks after transduction cells were harvested and a crude lysate showing ˜200 nmol/h mg of sialidase activity used in experiments.
Assays were performed with duplicates for each point and IC50 was obtained by plotting the data with Graphpad™ Prism 5.0.

[2] = biological target: T2, NEU4 (Homo sapiens, UniProt Q8WWR8); assay: IC50 inhibition assay using 4MU-NANA as the substrate, NEU4; set-up: GST; made in house; host or cells: E. coli; conditions: 4MU-NANA as the substrate; read-out: IC50 NEU4
T2 sequence (Q8WWR8 1-484): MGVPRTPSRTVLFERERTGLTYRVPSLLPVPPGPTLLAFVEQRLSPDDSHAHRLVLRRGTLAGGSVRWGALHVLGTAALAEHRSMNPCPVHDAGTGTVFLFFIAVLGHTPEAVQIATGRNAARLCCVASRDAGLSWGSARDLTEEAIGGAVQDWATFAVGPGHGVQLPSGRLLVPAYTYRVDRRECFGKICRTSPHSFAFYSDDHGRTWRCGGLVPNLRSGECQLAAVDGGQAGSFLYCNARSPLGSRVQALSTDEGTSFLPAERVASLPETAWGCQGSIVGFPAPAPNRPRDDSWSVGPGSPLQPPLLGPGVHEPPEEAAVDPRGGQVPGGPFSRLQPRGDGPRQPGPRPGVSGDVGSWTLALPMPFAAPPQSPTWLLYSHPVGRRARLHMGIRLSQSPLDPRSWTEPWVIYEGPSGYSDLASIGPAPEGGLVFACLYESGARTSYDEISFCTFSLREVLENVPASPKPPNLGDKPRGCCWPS

[3] = biological target: T3, NEU3 (Homo sapiens, UniProt Q9UQ49); assay: IC50 inhibition assay using 4MU-NANA as the substrate, NEU3; set-up: MBP (N); made in house; host or cells: E. coli; conditions: 4MU-NANA as the substrate; read-out: IC50 NEU3
T3 sequence (Q9UQ49 1-428): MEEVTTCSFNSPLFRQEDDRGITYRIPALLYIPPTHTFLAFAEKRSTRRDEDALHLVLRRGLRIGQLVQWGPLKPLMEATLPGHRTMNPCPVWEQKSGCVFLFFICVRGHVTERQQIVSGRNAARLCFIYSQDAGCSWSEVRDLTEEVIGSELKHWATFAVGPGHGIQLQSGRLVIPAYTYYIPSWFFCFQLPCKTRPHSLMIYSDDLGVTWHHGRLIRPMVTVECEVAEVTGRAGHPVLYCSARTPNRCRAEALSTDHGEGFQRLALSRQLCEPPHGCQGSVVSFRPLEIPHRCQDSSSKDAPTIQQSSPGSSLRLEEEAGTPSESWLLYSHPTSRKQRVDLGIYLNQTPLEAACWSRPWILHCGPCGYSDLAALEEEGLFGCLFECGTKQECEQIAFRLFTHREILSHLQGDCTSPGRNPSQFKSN

[4] = test system: NEU1, NEU2, NEU3, NEU4; assay: Isoenzyme specificity/selectivity from 4MU-NANA IC50 across the four human neuraminidases; conditions: isoenzyme(s) the compound is specific for; dual (bispecific) when ratio of IC50 is about 3 or less

With CC(=O)N[C@@H]1C(O)C=C(C(=O)O)OC1C(O)C(O)CNC(=O)c1ccccc1 (stereo partly drawn) [compound 56, 5-Acetamido-9-benzamido-2,6-anhydro-3,5-dideoxy-D-glycero-D-galacto-non-2-enonic acid] the IC50 [1] was 2.5 ± 0.3 µM, the IC50 [2] was 150 ± 10 µM and the IC50 [3] was 34 ± 5 µM. For the same compound, the Target [4] was “NEU1”.
CCCCC(=O)NCC(O)C(O)C1OC(C(=O)O)=CC(O)[C@H]1NC(=O)CCCC (stereo partly drawn) [compound 57, 5-Pentanamido-9-pentanamido-2,6-anhydro-3,5-dideoxy-D-glycero-D-galacto-non-2-enonic acid] gave an IC50 [1] of 1.5 ± 0.2 µM, an IC50 [2] greater than 500 µM and an IC50 [3] greater than 500 µM. The Target [4] was “NEU1”.
For CC(=O)Nc1ccc(C(=O)NC[C@@H](O)[C@@H](O)[C@@H]2OC(C(=O)O)=C[C@H](O)[C@H]2NC(C)=O)cc1 [compound 58, 5-Acetamido-9-(4-acetamido)benzamido-2,6-anhydro-3,5-dideoxy-d-glycero-d-galacto-non-2-enonic acid], the IC50 [1] was 1.9 ± 0.4 µM, the IC50 [2] was 24 ± 6 µM and the IC50 [3] was 7.2 ± 1.2 µM. The Target [4] was “NEU1”.
Compound CC(=O)N[C@H]1[C@H]([C@H](O)[C@H](O)CNC(=O)c2ccc(N)cc2)OC(C(=O)O)=C[C@@H]1O [compound 59, 5-Acetamido-9-(4-amino)benzamido-2,6-anhydro-3,5-dideoxy-b-glycero-D-galacto-non-2-enonic acid] has an IC50 [1] of 29 ± 5 µM, an IC50 [2] of 210 ± 80 µM and an IC50 [3] of 31 ± 6 µM. The Target [4] was “NEU1/ NEU3”.
With CC(=O)Nc1cccc(C(=O)NC[C@@H](O)[C@@H](O)[C@@H]2OC(C(=O)O)=C[C@H](O)[C@H]2NC(C)=O)c1 [compound 60, 5-Acetamido-9-(3-acetamido)benzamido-2,6-anhydro-3,5-dideoxy-d-glycero-d-galacto-non-2-enonic acid] the IC50 [1] was 6.5 ± 1.1 µM, the IC50 [2] was 52 ± 9 µM and the IC50 [3] was 7.1 ± 0.7 µM. The Target [4] was “NEU1/ NEU3”.
With CC(=O)N[C@H]1[C@H]([C@H](O)[C@H](O)CNC(=O)c2cccc(N)c2)OC(C(=O)O)=C[C@@H]1O [compound 61, 5-Acetamido-9-(3-amino)benzamido-2,6-anhydro-3,5-dideoxy-b-glycero-D-galacto-non-2-enonic acid] the IC50 [1] was 6.5 ± 0.7 µM, the IC50 [2] was 150 ± 40 µM and the IC50 [3] was 35 ± 6 µM. The Target [4] was “NEU1”.
Work on CC(=O)Nc1ccc(C(=O)NCCCCC(=O)NC[C@@H](O)[C@@H](O)[C@@H]2OC(C(=O)O)=C[C@H](O)[C@H]2NC(C)=O)cc1 [compound 62, 5-Acetamido-9-(5-(4-acetamidobenzamido))pentanamido-2,6-anhydro-3,5-dideoxy-d-glycero-d-galacto-non-2-enonic acid] yielded an IC50 [1] of 240 ± 70 µM, an IC50 [2] of 46 ± 13 µM and an IC50 [3] of 31 ± 5 µM. The Target [4] was “NEU3/ NEU4”.
Compound CCCCCC(=O)NC[C@@H](O)[C@@H](O)[C@@H]1OC(C(=O)O)=C[C@H](O)[C@H]1NC(=O)CCCCC [compound 64, 5-Hexanamido-9-hexanamido-2,6-anhydro-3,5-dideoxy-d-glycero-d-galacto-non-2-enonic acid] has an IC50 [1] of 4.3 ± 0.8 µM, an IC50 [2] greater than 500 µM and an IC50 [3] greater than 500 µM. For the same compound, the Target [4] was “NEU1”.
For CCCCC(=O)NC[C@@H](O)[C@@H](O)[C@@H]1OC(C(=O)O)=C[C@H](O)[C@H]1NC(=O)CC [compound 65, 5-Propionamido-9-pentanamido-2,6-anhydro-3,5-dideoxy-D-glycero-D-galacto-non-2-enonic acid], the IC50 [1] was 1.6 ± 0.2 µM, the IC50 [2] was 190 ± 70 µM and the IC50 [3] was greater than 500 µM. For the same compound, the Target [4] was “NEU1”.
CCCCCC(=O)NC[C@@H](O)[C@@H](O)[C@@H]1OC(C(=O)O)=C[C@H](O)[C@H]1NC(=O)CC [compound 66, 5-Propionamido-9-hexanamido-2,6-anhydro-3,5-dideoxy-D-glycero-D-galacto-non-2-enonic acid] was tested, and the IC50 [1] was 1.4 ± 0.2 µM, the IC50 [2] was 210 ± 90 µM and the IC50 [3] was 260 ± 70 µM. For the same compound, the Target [4] was “NEU1”.
